Holding throughout (assay type): functional, cell-based
For assay [1], the system named is HCT-116. The assay is described as follows: Cytotoxicity against vinblastine-resistant human HCT116 cells after 72 hrs. The settings on record: HCT-116, 72 h.
Another assay relates to L1210. The assay is described as follows: Cytotoxicity against mouse L1210 cells after 72 hrs. The settings on record: L1210, 72 h.
Assay [2] has as its system HCT-116. Put plainly: Cytotoxicity against human HCT116 cells after 72 hrs. The settings on record: HCT-116, 72 h.

Each structure is given as a SMILES string. A value given as a limit tells only on which side of the number the result lay.

As usually defined, the IC50 is the concentration that inhibits the measured activity by half. Low values mean inhibition by little substance, high ones a need for much substance. For `CCC1=C[C@@H]2CN(CCc3c([nH]c4ccccc34)[C@@](C(=O)OC)(c3cc4c(cc3OC)N(C)C3[C@]45CCN4CC=C[C@@](CC)([C@@H](OC(C)=O)[C@]3(O)C(=O)OC)[C@H]45)C2)C1` (some centres undefined), the IC50 in the assay with HCT-116 [1] is 0.6 µM; with L1210, 0.065 µM; with HCT-116 [2], 0.075 µM.

For the compound `CCOC(=O)[C@]1(c2cc3c(cc2OC)N(C)C2[C@]34CCN3CC=C[C@@](CC)([C@@H](OC(C)=O)[C@]2(O)C(=O)OC)[C@H]34)C[C@@H]2C=C(CC)CN(CCc3c1[nH]c1ccccc31)C2` (some centres undefined), the IC50 turned out to be 4.1 µM in the assay on HCT-116 [1], 0.62 µM with L1210 and 0.64 µM with HCT-116 [2].

Turning to `CCC1=C[C@@H]2CN(CCc3c([nH]c4ccccc34)[C@@](C#N)(c3cc4c(cc3OC)N(C)C3[C@]45CCN4CC=C[C@@](CC)([C@@H](OC(C)=O)[C@]3(O)C(=O)OC)[C@H]45)C2)C1` (some centres undefined), the results for the IC50 in the assay on HCT-116 [1], with L1210 and with HCT-116 [2] were 6.8 µM, 6.5 µM and 6.1 µM, respectively.

Take `CCC1=C[C@@H]2CN(CCc3c([nH]c4ccccc34)[C@@](C(N)=O)(c3cc4c(cc3OC)N(C)C3[C@]45CCN4CC=C[C@@](CC)([C@@H](OC(C)=O)[C@]3(O)C(=O)OC)[C@H]45)C2)C1` (some centres undefined): the IC50 in the assay on HCT-116 [1], in the assay on L1210 and in the assay with HCT-116 [2] was > 10 µM each time.

Regarding `CCC1=C[C@@H]2CN(CCc3c([nH]c4ccccc34)[C@@](C=O)(c3cc4c(cc3OC)N(C)C3[C@]45CCN4CC=C[C@@](CC)([C@@H](OC(C)=O)[C@]3(O)C(=O)OC)[C@H]45)C2)C1` (some centres undefined), the IC50 with HCT-116 [1] was > 10 µM; in the assay on L1210 it was 6.3 µM; with HCT-116 [2], 7 µM.

As to `CCOC(=O)[C@]1(c2cc3c(cc2OC)N(C)C2[C@]34CCN3CC=C[C@@](CC)([C@@H](OC(C)=O)[C@]2(O)C(=O)OC)[C@H]34)C[C@H]2CN(CCc3c1[nH]c1ccccc31)C[C@](O)(CC)C2` (some centres undefined), the IC50 in the assay on HCT-116 [1] is 0.83 µM; with L1210 it was 0.06 µM; in the assay with HCT-116 [2] it was 0.07 µM.

As to `CC[C@]1(O)C[C@@H]2CN(CCc3c([nH]c4ccccc34)[C@@](C#N)(c3cc4c(cc3OC)N(C)C3[C@]45CCN4CC=C[C@@](CC)([C@@H](OC(C)=O)[C@]3(O)C(=O)OC)[C@H]45)C2)C1` (some centres undefined), the IC50 in the assay on HCT-116 [1] turned out to be 7.4 µM; with L1210 it was 0.63 µM; with HCT-116 [2], 0.67 µM.

As to `CC[C@]1(O)C[C@@H]2CN(CCc3c([nH]c4ccccc34)[C@@](C(N)=O)(c3cc4c(cc3OC)N(C)C3[C@]45CCN4CC=C[C@@](CC)([C@@H](OC(C)=O)[C@]3(O)C(=O)OC)[C@H]45)C2)C1` (some centres undefined), the IC50 in the assay on HCT-116 [1], in the assay on L1210 and in the assay on HCT-116 [2] was > 10 µM throughout.

For `CC[C@]1(O)C[C@@H]2CN(CCc3c([nH]c4ccccc34)[C@@](CCO)(c3cc4c(cc3OC)N(C)C3[C@]45CCN4CC=C[C@@](CC)([C@@H](OC(C)=O)[C@]3(O)C(=O)OC)[C@H]45)C2)C1` (some centres undefined), the IC50 is > 10 µM in the assay on HCT-116 [1], 6.5 µM in the assay on L1210 and 5.8 µM in the assay with HCT-116 [2].

Regarding `CC[C@]1(O)C[C@@H]2CN(CCc3c([nH]c4ccccc34)[C@@](C(=O)OC)(c3cc4c(cc3OC)N(C)[C@H]3[C@@](O)(C(=O)OC)[C@H](OC(C)=O)[C@]5(CC)C=CCN6CC[C@]43[C@@H]65)C2)C1` [VINBLASTINE], the figures for the IC50 in the assay on HCT-116 [1] and in the assay with L1210 were 0.6 µM and 0.006 µM, respectively.

The values above are taken from ChEMBL document CHEMBL1268962 (Bioorg Med Chem Lett, 2010).
